The values below come from patent US20120190586A1, “Synthetic Receptors for Identification of Protein Posttranslation Modifications” (priority 2009, published 2012).

Molecules are shown by their SMILES. Several values for one entry are separate records, joined by “and”; a condition that tells them apart may be missing. Equal entries are not always repeated. Where two headings read alike, the source gives them in different places.

Assay [1] concerns the target T1, H3 K9Me3 R8G (Homo sapiens, UniProt P68431, R9G).
T1 construct: peptide consisting of residues 5-11 of histone 3 (H3 K9Men); made in house; host or cells: solid-phase chemical peptide synthesis
Put plainly: Fluorescence anisotropy binding to mutant H3 tail with Gly in place of Arg8. The conditions noted are these: 27° C., 10 mM phosphate buffer pH 8.5; errors in parentheses. As for the experimental part: FIG. 11. Fluorescence anisotropy of rac-A2B with H3 KMe3 where Arg8 has been mutated to Gly8 (10 mM sodium phosphate buffer pH 8.5).
(§1) Fluorescence Anisotropy. Binding assays were performed with purified rac- or meso-A2B and fluorescein labeled histone 3 peptides. Assays were prepared in 384-well plates (Corning) with a total volume of 50 μL per well, containing 20 μM labeled peptide and increasing concentrations of A2B in buffer (10 mM phosphate pH 8.5). Plates were spun down and allowed to incubate for at least 30 minutes before analysis. Fluorescence anisotropy was measured on a PHERAstar (BMG Labtech) using FP485, 520A, and 520B filters at 27° C. The anisotropy data was plotted as a function A2B concentration and each plot was fitted in KaleidaGraph to the following equation (Wang, Y.; Killian, J.; Hamasaki, K.; Rando, R. R. Biochemistry 1996, 35, 12338-12346):
(§2) where r is fluorescence anisotropy, ro is the initial anisotropy value, r∞ is the maximum anisotropy value, a is the peptide concentration, x is the concentration of A2B, and kd is the dissociation constant. All measurements were taken in duplicate or triplicate.

For assay [2], the target named is T2, WGGG-GKMe3 (Histone 3 peptide, Gly8) (Homo sapiens, UniProt P68431, R9G).
T2 construct: made in house; host or cells: solid-phase chemical peptide synthesis
In words: Isothermal titration calorimetry, peptide titrated into A2B. The format is binding. As for the experimental part: FIG. 12. Histone 3 peptide (WGGG-GKMe3) used as the titrant in ITC experiments to confirm A2B binding to KMe3.
Isothermal Titration calorimetry. Isothermal titration calorimetry measurements were conducted using an ITC200 from MicroCal, LLC to verify the binding data obtained by fluorescence anisotropy. A single 0.2 μL aliquot followed by 38 aliquots of 1 μL were titrated into the calorimetric cell every 2.5 minutes. The titrant used to determine the binding to KMe3 was a 2.0 mM solution of the H3 tail peptide in FIG. 12 (in 10 mM phosphate buffer, pH 8.5), containing a Trp for concentration determination and separated from the natural sequence by 3 glycine spacers. This peptide also contained Gly8 as opposed to Arg8 which is found in the native sequence. It has been shown that this mutation has minimal affect on the overall binding affinity. The cell was filled with a 0.2 mM solution of either rac- or meso-A2B (in 10 mM phosphate buffer, pH 8.5). All measurements were carried out at 26° C.

For assay [3], the target named is T3, H3 tail, Lys9 mutated to Gly (Homo sapiens, UniProt P68431, K10G).
T3 construct: A mutant H3 tail with Gly in place of Arg8; made in house; host or cells: solid-phase chemical peptide synthesis
Put plainly: Binding to H3 tail with Lys9 mutated to Gly.

Assay [4] concerns the target T4, H3 K9Me2 (FAM-QTAR-KMe2-STG-NH2) (Homo sapiens, UniProt P68431).
T4 construct: peptide consisting of residues 5-11 of histone 3 (H3 K9Men); made in house; host or cells: solid-phase chemical peptide synthesis
Put plainly: Fluorescence anisotropy binding of A2B receptors to FAM-labeled histone 3 peptide. The conditions noted are these: 27° C., 10 mM phosphate buffer pH 8.5; errors in parentheses. As for the experimental part: (§3) Fluorescence anisotropy was used to measure the dissociation constant of rac- and meso-A2B to a peptide consisting of residues 5-11 of histone 3 (H3 K9Men), with each of the methylation states at Lys 9 as well as an N-terminal carboxyfluorescein (FAM) for fluorescence detection. Binding affinities for H3 K9Me3 were also confirmed by ITC (see below).
(§4) H3 K9Men: FAM-QTAR-KMen-STG-NH2, n=0-3
as §1, §2

Assay [5] has as its target T5, H3 K9Me (FAM-QTAR-KMe-STG-NH2) (Homo sapiens, UniProt P68431).
T5 construct: peptide consisting of residues 5-11 of histone 3 (H3 K9Men); made in house; host or cells: solid-phase chemical peptide synthesis
The description is as above. The conditions noted are these: 27° C., 10 mM phosphate buffer pH 8.5; errors in parentheses. On the procedure: as §3, §4, §1, §2

In assay [6] the target is T6, H3 K9 (unmethylated, FAM-QTAR-K-STG-NH2) (Homo sapiens, UniProt P68431).
T6 construct: peptide consisting of residues 5-11 of histone 3 (H3 K9Men); made in house; host or cells: solid-phase chemical peptide synthesis
Described as above. On the procedure: as §3, §4, §1, §2

The target of assay [7] is T7, H3 K9Me3 (FAM-QTAR-KMe3-STG-NH2) (Homo sapiens, UniProt P68431).
T7 construct: peptide consisting of residues 5-11 of histone 3 (H3 K9Men); made in house; host or cells: solid-phase chemical peptide synthesis
The description is as above. The conditions noted are these: for Kd: 27° C., 10 mM phosphate buffer pH 8.5, errors in parentheses; for Affinity for H3 K9Me3 peptide (in words): fluorescence anisotropy. As for the experimental part: as §3, §4, §1, §2

The subject of assay [8] is Ac-KMe3-G-NH2. Put plainly: Amplification in biased A2B dynamic combinatorial library (LC-MS). The conditions noted are these: biased library A:B 2:1, 7.5 mM total; Ac-KMe3-G-NH2 template. On the procedure:
Using a biased library in which building blocks A and B were mixed in a 2:1 ratio (7.5 mM total), the selectivity of the receptors for different methylation states of lysine was investigated, using Ac—KMen-G-NH2 as the guests (n=0-3). A diverse library was generated in the absence of a template, with A2 and A2B3 as the dominant species and rac-A2B and meso-A2B constituting only 2.4% and 1.1% of the total library composition respectively.
Dynamic Combinatorial Chemistry. The relevant building blocks were individually dissolved in water, adding sufficient 1.0 M aqueous NaOH to fully deprotonate the thiols and carboxylic acids on the building blocks, using sonication when necessary. The pH of each solution was then adjusted to 8.5 using 1.0 M aqueous HCl and 1.0 M aqueous NaOH. […] The vials were capped and analyzed at various time points.
Analytical LC-MS. […] Mass spectra (ESI+) were acquired in ultrascan mode by using a drying temperature of 350° C., a nebulizer pressure of 45 psi, a drying gas flow of 10 L/min, and a capillary voltage of 3000 V. The reactions were monitored weekly (3 μL injections) until equilibrium was reached after about 3 weeks. […] The peak areas were integrated at 254 nm and the amplification factors were calculated (A.F.=% area of A2B in templated DCL/% area of A2B in untemplated DCL).

The mark [9] stands for this setting: 26° C., 10 mM phosphate buffer pH 8.5, read-out: Kd by ITC, binding to KMe3.

Turning to `O=C(O)C1=C(C(=O)O)C2c3ccc4cc3C1c1ccc(cc12)SSc1ccc2c(c1)C1C(C(=O)O)=C(C(=O)O)C2c2cc(ccc21)SSc1cc(cc(C(=O)O)c1)SS4` (racemic) [rac-A2B], the dissociation constant Kd is 34 µM in assay [1]; 20 µM in assay [2] (setting [9]); 58 µM in assay [4]; 166 µM in assay [5]; > 1200 µM in assay [6] (27° C., 10 mM phosphate buffer pH 8.5); 25 µM in assay [7]. In assay [3], the “Binding to H3 tail with Lys9 mutated to Gly (in words)” value is listed as “total loss of binding”. Further, in assay [6] (fluorescence anisotropy), the “Binding to the unmethylated histone tail (in words)” value was “no appreciable binding”. Also, in assay [7], the “Affinity for H3 K9Me3 peptide (in words)” value is “low micromolar affinity”. Also, the “Amplification in templated DCL, KMe3 guest” value in assay [8] is reported as “approximately 10 fold”.
As for `O=C(O)C1=C(C(=O)O)[C@@H]2c3ccc4cc3[C@H]1c1ccc(cc12)SSc1ccc2c(c1)[C@H]1C(C(=O)O)=C(C(=O)O)[C@@H]2c2cc(ccc21)SSc1cc(cc(C(=O)O)c1)SS4` [meso-A2B], the Kd in assay [2] (setting [9]) was 12.8 µM and 13 µM; in assay [2] (titration of WGGG-GKMe3 into receptor, read-out: Kd by ITC, binding to KMe3 (unit inferred)), 12.8 µM; in assay [4] it was 73 µM; in assay [7], 28 µM. The “Affinity for H3 K9Me3 peptide (in words)” value in assay [7] was “low micromolar affinity”. Moreover, the “Amplification in templated DCL, KMe3 guest” value in assay [8] is listed as “approximately 10 fold”.
